Target: T1, recombinant human GR (Homo sapiens, UniProt P04150)
T1 construct: purchased Panvera/Invitrogen P2812 (kit P2893)
T1 sequence (P04150 1-777): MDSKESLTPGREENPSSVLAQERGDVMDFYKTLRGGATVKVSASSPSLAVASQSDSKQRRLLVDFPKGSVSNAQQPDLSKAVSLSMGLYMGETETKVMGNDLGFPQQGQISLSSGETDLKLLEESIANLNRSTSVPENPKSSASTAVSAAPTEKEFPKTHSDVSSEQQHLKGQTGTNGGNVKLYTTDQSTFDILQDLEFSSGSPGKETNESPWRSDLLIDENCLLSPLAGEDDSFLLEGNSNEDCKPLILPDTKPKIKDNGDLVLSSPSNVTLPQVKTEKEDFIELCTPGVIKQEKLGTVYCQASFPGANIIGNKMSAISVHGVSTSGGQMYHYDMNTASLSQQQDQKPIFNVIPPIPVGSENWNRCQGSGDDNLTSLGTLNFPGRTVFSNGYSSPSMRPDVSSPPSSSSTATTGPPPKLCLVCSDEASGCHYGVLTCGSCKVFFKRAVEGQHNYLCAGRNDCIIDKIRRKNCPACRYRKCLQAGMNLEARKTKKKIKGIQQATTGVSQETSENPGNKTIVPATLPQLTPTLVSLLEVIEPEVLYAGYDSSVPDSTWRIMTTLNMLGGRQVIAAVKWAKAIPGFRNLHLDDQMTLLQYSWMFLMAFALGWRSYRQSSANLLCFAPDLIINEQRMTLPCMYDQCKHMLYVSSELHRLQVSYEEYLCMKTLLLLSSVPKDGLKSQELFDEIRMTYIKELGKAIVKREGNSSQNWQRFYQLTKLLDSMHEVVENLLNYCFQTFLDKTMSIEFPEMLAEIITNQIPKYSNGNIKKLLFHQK
Assay: Human Glucocorticoid Receptor (GR) Assay (fluorescence polarization, Panvera/Invitrogen kit)
Type: binding
Settings: fluorescence polarization; GS Red tracer; 2 hours at room temperature; 100% control 10 μM Dexamethasone; read-out: Inhibition of GR binding, IC50
Experimental: Human Glucocorticoid Receptor (GR) Assay
The assay is based on a commercial kit from Panvera/Invitrogen (Part number P2893). The assay technology is fluorescence polarization. […] The GR and Stabilizing Peptide reagents are stored at −70° C. while the GS Red is stored at −20° C. Also included in the kit are 1M DTT (Panvera, Part number P2325, stored at −20° C.) and GR Screening buffer 10× (Panvera, Part number P2814, stored at −70° C. initially but once thawed stored at room temperature). Avoid repeated freeze/thaws for all reagents. The GR Screening buffer 10× comprises 100 mM potassium phosphate, 200 mM sodium molybdate, 1 mM EDTA and 20% DMSO.
0% control was 100% DMSO and 100% control was 10 μM Dexamethasone. Background solution (8 μL; assay buffer 10×, Stabilizing Peptide, DTT and ice cold MQ water) was added to the background wells. GS Red solution (7 μL; assay buffer 10×, Stabilizing Peptide, DTT, GS Red and ice cold water) was added to all wells except background wells. GR solution (7 μL; assay buffer 10×, Stabilizing Peptide, DTT, GR and ice cold water) was added to all wells. The plate was sealed and incubated in a dark at room temperature for 2 hours.

SMILES | IC50
CCC(=O)O[C@]1(C(=O)SCOC)CC[C@H]2[C@@H]3CCC4=Cc5c(cnn5-c5ccc(F)nc5)C[C@]4(C)[C@H]3[C@@H](O)C[C@@]21C [Example 98, (1R,3aS,3bS,10aR,10bS,11S,12aS)-7-(6-Fluoropyridin-3-yl)-11-hydroxy-1-{[(methoxymethyl)sulfanyl]carbonyl}-10a,12a-dimethyl-1,2,3,3a,3b,4,5,7,10,10a,10b,11,12,12a-tetradecahydrocyclopenta[5,6]naphtho[1,2-f]indazol-1-yl propanoate] | 3.1 nM
C[C@]12Cc3cnn(-c4ccc(F)nc4)c3C=C1CC[C@H]1[C@@H]3CC[C@](OC(=O)c4ccco4)(C(=O)SCC#N)[C@@]3(C)C[C@H](O)[C@@]12F [Example 211, (1R,3aS,3bS,10aS,10bR,11S,12aS)-1-{[(Cyanomethyl)sulfanyl]carbonyl}-10b-fluoro-7-(6-fluoropyridin-3-yl)-11-hydroxy-10a,12a-dimethyl-1,2,3,3a,3b,4,5,7,10,10a,10b,11,12,12a-tetradecahydrocyclopenta[5,6]naphtho[1,2-f]indazol-1-yl furan-2-carboxylate] | 2.2 nM
CCC(=O)O[C@]1(C(=O)SCCF)CC[C@H]2[C@@H]3CCC4=Cc5c(cnn5-c5ccc(F)cc5)C[C@]4(C)[C@H]3[C@@H](O)C[C@@]21C [Example 26, (1R,3aS,3bS,10aR,10bS,11S,12aS)-1-{[(2-Fluoroethyl)thio]carbonyl}-7-(4-fluoro-phenyl)-11-hydroxy-10a,12a-dimethyl-1,2,3,3a,3b,4,5,7,10,10a,10b,11,12,12a-tetradecahydrocyclopenta[5,6]naphtho[1,2-f]indazol-1-yl propanoate] | 4.3 nM
CSCSC(=O)[C@@]1(OC(=O)c2ccco2)CC[C@H]2[C@@H]3CCC4=Cc5c(cnn5-c5ccc(F)cc5)C[C@]4(C)[C@H]3[C@@H](O)C[C@@]21C [Example 82, (1R,3aS,3bS,10aR,10bS,11S,12aS)-7-(4-Fluorophenyl)-11-hydroxy-10a,12a-dimethyl-1-({[(methylsulfanyl)methyl]sulfanyl}carbonyl)-1,2,3,3a,3b,4,5,7,10,10a,10b,11,12,12a-tetradecahydrocyclopenta[5,6]naphtho[1,2-f]indazol-1-yl furan-2-carboxylate] | 8.5 nM
C[C@]12Cc3cnn(-c4cccc(C(=O)N5CCOCC5)c4)c3C=C1CC[C@@H]1[C@@H]2[C@@H](O)C[C@@]2(C)[C@H]1CC[C@]2(OC(=O)c1ccco1)C(=O)SCF [Example 100, (1R,3aS,3bS,10aR,10bS,11S,12aS)-1-{[(Fluoromethyl)thio]carbonyl}-11-hydroxy-10a,12a-dimethyl-7-[3-(morpholin-4-ylcarbonyl)phenyl]-1,2,3,3a,3b,4,5,7,10,10a,10b,11,12,12a-tetradecahydrocyclopenta[5,6]naphtho[1,2-f]indazol-1-yl furan-2-carboxylate] | 2.7 nM
CCSCC(=O)[C@@]1(OC(C)=O)CC[C@H]2[C@@H]3CCC4=Cc5c(cnn5-c5ccc(F)cc5)C[C@]4(C)[C@H]3[C@@H](O)C[C@@]21C [Example 131, (1R,3aS,3bS,10aR,10bS,11S,12aS)-1-[(Ethylsulfanyl)acetyl]-7-(4-fluorophenyl)-11-hydroxy-10a,12a-dimethyl-1,2,3,3a,3b,4,5,7,10,10a,10b,11,12,12a-tetradecahydrocyclopenta[5,6]naphtho[1,2-f]indazol-1-yl acetate] | 4.1 nM
C[C@]12Cc3cnn(-c4ccc(F)nc4)c3C=C1CC[C@H]1[C@@H]3CC[C@](OC(=O)c4cocn4)(C(=O)SCF)[C@@]3(C)C[C@H](O)[C@@]12F [Example 210, (1R,3aS,3bS,10aS,10bR,11S,12aS)-1-{[(Fluoromethyl)sulfanyl]carbonyl}-10b-fluoro-7-(6-fluoropyridin-3-yl)-11-hydroxy-10a,12a-dimethyl-1,2,3,3a,3b,4,5,7,10,10a,10b,11,12,12a-tetradecahydrocyclopenta[5,6]naphtho[1,2-f]indazol-1-yl 1,3-oxazole-4-carboxylate] | 2 nM
CSSCC(=O)[C@@]1(OC(C)=O)CC[C@H]2[C@@H]3CCC4=Cc5c(cnn5-c5ccc(F)cc5)C[C@]4(C)[C@H]3[C@@H](O)C[C@@]21C [Example 134, (1R,3aS,3bS,10aR,10bS,11S,12aS)-7-(4-Fluorophenyl)-11-hydroxy-10a,12a-dimethyl-1-[(methyldisulfanyl)acetyl]-1,2,3,3a,3b,4,5,7,10,10a,10b,11,12,12a-tetradecahydrocyclopenta[5,6]naphtho[1,2-f]indazol-1-yl acetate] | 2.9 nM
CCC(=O)O[C@]1(C(=O)SCC(N)=O)CC[C@H]2[C@@H]3CCC4=Cc5c(cnn5-c5ccc(F)cc5)C[C@]4(C)[C@H]3[C@@H](O)C[C@@]21C [Example 13, (1R,3aS,3bS,10aR,10bS,11S,12aS)-{[(2-Amino-2-oxoethyl)thio]carbonyl}-7-(4-fluorophenyl)-11-hydroxy-10a,12a-dimethyl-1,2,3,3a,3b,4,5,7,10,10a,10b,11,12,12a-tetradecahydrocyclopenta[5,6]naphtho[1,2-f]indazol-1-yl propanoate] | 3.1 nM
Cn1cc(C(=O)O[C@]2(C(=O)SCF)CC[C@H]3[C@@H]4CCC5=Cc6c(cnn6-c6ccc(F)cc6)C[C@]5(C)[C@H]4[C@@H](O)C[C@@]32C)nn1 [Example 48, (1R,3aS,3bS,10aR,10bS,11S,12aS)-1-{[(Fluoromethyl)thio]carbonyl}-7-(4-fluoro-phenyl)-11-hydroxy-10a,12a-dimethyl-1,2,3,3a,3b,4,5,7,10,10a,10b,11,12,12a-tetradecahydrocyclopenta[5,6]naphtho[1,2-f]indazol-1-yl 1-methyl-1H-1,2,3-triazole-4-carboxylate] | 4.9 nM
C[C@]12Cc3cnn(-c4ccc(F)cc4)c3C=C1CC[C@H]1[C@@H]3CC[C@](OC(=O)c4ccco4)(C(=O)SCF)[C@@]3(C)C[C@H](O)[C@@]12F [Example 194, (1R,3aS,3bS,10aS,10bR,11S,12aS)-1-{[(Fluoromethyl)sulfanyl]carbonyl}-10b-fluoro-7-(4-fluorophenyl)-11-hydroxy-10a,12a-dimethyl-1,2,3,3a,3b,4,5,7,10,10a,10b,11,12,12a-tetradecahydrocyclopenta[5,6]naphtho[1,2-f]indazol-1-yl furan-2-carboxylate] | 2.3 nM
Cn1cc(C(=O)O[C@]2(C(=O)SCCO)CC[C@H]3[C@@H]4CCC5=Cc6c(cnn6-c6ccc(F)cc6)C[C@]5(C)[C@H]4[C@@H](O)C[C@@]32C)nn1 [Example 49, (1R,3aS,3bS,10aR,10bS,11S,12aS)-7-(4-Fluorophenyl)-11-hydroxy-1-{[(2-hydroxy-ethyl)thio]carbonyl}-10a,12a-dimethyl-1,2,3,3a,3b,4,5,7,10,10a,10b,11,12,12a-tetradecahydrocyclopenta[5,6]naphtho[1,2-f]indazol-1-yl 1-methyl-1H-1,2,3-triazole-4-carboxylate] | 3.5 nM
